The record followed here is patent US20250248431A1, “AGENT FOR ENHANCING SALTINESS OR SUPRESSING OFF-FLAVOR” (AJINOMOTO CO., INC., priority 2022, published 2025).

Structures are written as SMILES.

A short description of assay [1]: Test 9: sensory evaluation of saltiness intensity, meatballs. The following applies: effect if average score 1 point or more. Type of assay: in vivo. The source says:
(§1) Meatballs were produced as evaluation samples by the following steps (1) to (6).
(§2) (1) Commercially available ground pork, sodium chloride (manufactured by Naikai Salt Industries Co., Ltd.), and potassium chloride (manufactured by Uji Pharmaceutical Co., Ltd.) were mixed in the ratios shown in Table 25 below, and the mixture was stirred in a stand mixer (“Kitchen Aid”, model: KSM5WH, manufactured by FMI Corporation) until the entire mixture was uniformly mixed. The speed scale of the stand mixer was set to “1”. (2) To the mixture obtained in the above-mentioned (1) were added finely chopped onion, water, salad oil (manufactured by J-OIL MILLS, INC.), potato starch (manufactured by Minami-Tokachi Rationalized Potato Starch Factory), and β-caryophyllene solution or β-caryophyllene oxide solution in the ratios shown in Table 25 below, and the mixture was stirred in the above-mentioned stand mixer (speed scale setting: 1) until the entire mixture was uniformly mixed. The β-caryophyllene solution was prepared by dissolving β-caryophyllene (manufactured by Sigma-Aldrich) in propylene glycol to a concentration of 1000 ppm by weight, and the β-caryophyllene oxide solution was prepared by dissolving β-caryophyllene oxide (manufactured by Penta Manufacturing Company) in propylene glycol to a concentration of 1000 ppm by weight. […]

The nature of assay [2]: Test 9: sensory evaluation of off-taste level, meatballs. The following applies: effect if average score 1 point or more. The class given is in vivo.
From the text: as §1, §2

For the compound `C=C1CC[C@H]2O[C@]2(C)CC[C@@H]2[C@@H]1CC2(C)C` [β-caryophyllene oxide], the “saltiness enhancing effect” value in assay [1] is “can enhance the saltiness”. Further, the “off-taste suppression effect” value in assay [2] is reported as “suppress the off-taste of off-taste substances”.
